IC50 and EC50 data for 28 compounds are collected here from patent US20240010634A1, “PYRIMIDINYL SULFONAMIDES AS INHIBITORS OF ACK1/TNK2 TYROSINE KINASE” (H. LEE MOFFITT CANCER CENTER AND RESEARCH INSTITUTE, INC., priority 2020, published 2024).

In one assay the target is ACK1 (Homo sapiens (Human), UniProt Q07912). The experiment in a line: Reaction Biology 33P Hotspot assay. Type of assay: biochemical.
For another assay, the system named is MDA-MB-231. The experiment in a line: Cell viability (MDA-MB-231). It is filed as cell-based. The following applies: Homo sapiens.
The next assay has as its system UKE1. The experiment in a line: Cell viability (UKE1). Type of assay: cell-based.

Structures are written as SMILES. Where “and” joins values, the source holds several entries; their conditions need not be identical. Equal values may be shown once. A value given as a limit tells only on which side of the number the result lay.

ACK1, sequence (Q07912 whole entry): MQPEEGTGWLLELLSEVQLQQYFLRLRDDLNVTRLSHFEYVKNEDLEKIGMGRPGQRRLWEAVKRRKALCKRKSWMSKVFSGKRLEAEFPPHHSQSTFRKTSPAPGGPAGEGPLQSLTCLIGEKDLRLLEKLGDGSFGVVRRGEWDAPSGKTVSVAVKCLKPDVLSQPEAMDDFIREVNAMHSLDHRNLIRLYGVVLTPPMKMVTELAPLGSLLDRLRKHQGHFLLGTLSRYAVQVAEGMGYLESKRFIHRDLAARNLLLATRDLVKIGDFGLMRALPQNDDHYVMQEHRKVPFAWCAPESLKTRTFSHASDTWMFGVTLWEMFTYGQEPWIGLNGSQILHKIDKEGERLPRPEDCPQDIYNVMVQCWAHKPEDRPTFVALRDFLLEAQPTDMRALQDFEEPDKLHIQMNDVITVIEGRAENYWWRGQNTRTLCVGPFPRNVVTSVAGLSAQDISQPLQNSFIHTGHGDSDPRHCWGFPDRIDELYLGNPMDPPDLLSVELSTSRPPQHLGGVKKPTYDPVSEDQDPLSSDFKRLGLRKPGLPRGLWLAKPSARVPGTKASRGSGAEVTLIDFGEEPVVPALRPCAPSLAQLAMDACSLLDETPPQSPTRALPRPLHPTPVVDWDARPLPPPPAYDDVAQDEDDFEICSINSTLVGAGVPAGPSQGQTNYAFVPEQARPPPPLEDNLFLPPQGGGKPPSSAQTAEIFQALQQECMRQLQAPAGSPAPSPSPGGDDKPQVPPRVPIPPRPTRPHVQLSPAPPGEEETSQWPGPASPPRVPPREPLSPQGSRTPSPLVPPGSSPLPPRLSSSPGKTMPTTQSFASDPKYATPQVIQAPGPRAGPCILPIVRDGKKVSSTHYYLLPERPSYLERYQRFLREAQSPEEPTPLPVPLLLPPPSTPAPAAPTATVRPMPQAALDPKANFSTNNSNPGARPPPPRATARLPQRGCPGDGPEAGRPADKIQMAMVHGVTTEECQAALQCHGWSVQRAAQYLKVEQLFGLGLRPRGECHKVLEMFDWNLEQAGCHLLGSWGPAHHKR

In general, IC50 refers to the concentration that inhibits the measured activity by half. Turning to `Cc1cnc(Nc2ccc(OCC3CCOCC3)cc2)nc1Nc1cccc(NS(=O)(=O)C(C)(C)C)c1` [2-methyl-N-(3-((5-methyl-2-((4-((tetrahydro-2H-pyran-4-yl)methoxy)phenyl)amino)pyrimidin-4-yl)amino)phenyl)propane-2-sulfonamide], the IC50 on ACK1 amounted to 26 nM.
The EC50 is the concentration that produces a half-maximal response. `Cc1cnc(Nc2ccc(N3CCN(C)CC3)c(OC(C)C)c2)nc1Nc1ccc(Cl)c(NS(=O)(=O)C(C)(C)C)c1` [N-(2-chloro-5-((2-((3-isopropoxy-4-(4-methylpiperazin-1-yl)phenyl)amino)-5-methylpyrimidin-4-yl)amino)phenyl)-2-methylpropane-2-sulfonamide]: the concentration for a half-maximal effect (EC50) with MDA-MB-231 came out at 220 nM; with UKE1 it was 850 nM. Further, the half-maximal inhibitory concentration (IC50) against ACK1 was found to be 14 nM.
Compound `Cc1cnc(Nc2ccc(N3CCN(C)CC3)cc2OC2CCC2)nc1Nc1cccc(NS(=O)(=O)C(C)(C)C)c1` [N-(3-((2-((2-cyclobutoxy-4-(4-methylpiperazin-1-yl)phenyl)amino)-5-methylpyrimidin-4-yl)amino)phenyl)-2-methylpropane-2-sulfonamide] yielded an IC50 on ACK1 of 26.2 nM.
`Cc1cnc(Nc2ccc(-c3cnn(C)c3)cc2OC(C)C)nc1Nc1cccc(NS(=O)(=O)C(C)(C)C)c1` [N-(3-((2-((2-isopropoxy-4-(1-methyl-1H-pyrazol-4-yl)phenyl)amino)-5-methylpyrimidin-4-yl)amino)phenyl)-2-methylpropane-2-sulfonamide] displayed a half-maximal inhibitory concentration (IC50) at ACK1 of 149 nM.
With `COc1cc(-c2cnn(C)c2)ccc1Nc1ncc(C)c(Nc2cccc(NS(=O)(=O)C(C)(C)C)c2)n1` [N-(3-((2-((2-methoxy-4-(1-methyl-1H-pyrazol-4-yl)phenyl)amino)-5-methylpyrimidin-4-yl)amino)phenyl)-2-methylpropane-2-sulfonamide], the IC50 on ACK1 is 15.2 nM.
Regarding `COc1cc(-n2cccn2)ccc1Nc1ncc(C)c(Nc2cccc(NS(=O)(=O)C(C)(C)C)c2)n1` [N-(3-((2-((2-methoxy-4-(1H-pyrazol-1-yl)phenyl)amino)-5-methylpyrimidin-4-yl)amino)phenyl)-2-methylpropane-2-sulfonamide], the EC50 is 11000 nM in the assay on MDA-MB-231 and above 10000 nM in the assay on UKE1. The midpoint of inhibition at ACK1, the IC50, lay at 19.8 nM.
At ACK1, `COc1c(Nc2ncc(C)c(Nc3cccc(NS(=O)(=O)C(C)(C)C)c3)n2)ccc(N2CCN(C)CC2)c1F` [N-(3-((2-((3-fluoro-2-methoxy-4-(4-methylpiperazin-1-yl)phenyl)amino)-5-methylpyrimidin-4-yl)amino)phenyl)-2-methylpropane-2-sulfonamide] displayed a half-inhibitory concentration (IC50) of 37.6 nM.
`Cc1cnc(Nc2ccc(-c3cnn(C)c3)c(OC(C)C)c2)nc1Nc1cccc(NS(=O)(=O)C(C)(C)C)c1` [N-(3-((2-((3-isopropoxy-4-(1-methyl-1H-pyrazol-4-yl)phenyl)amino)-5-methylpyrimidin-4-yl)amino)phenyl)-2-methylpropane-2-sulfonamide] displayed an IC50 on ACK1 of 26 nM.
`Cc1cnc(Nc2ccc(N3CCN(C)CC3)c(OC(C)C)c2)nc1Nc1cccc(NS(=O)(=O)C(C)(C)C)c1` [N-(3-((2-((3-isopropoxy-4-(4-methylpiperazin-1-yl)phenyl)amino)-5-methylpyrimidin-4-yl)amino)phenyl)-2-methylpropane-2-sulfonamide]: the values for the EC50 in the assay with MDA-MB-231 and in the assay on UKE1 were 213 nM and 470 nM, respectively. The concentration for half-maximal inhibition (IC50) against ACK1 was 13 nM and 13.8 nM.
In the case of `COc1cc(Nc2ncc(C)c(Nc3cccc(NS(=O)(=O)C(C)(C)C)c3)n2)ccc1-c1cnn(C)c1` [N-(3-((2-((3-methoxy-4-(1-methyl-1H-pyrazol-4-yl)phenyl)amino)-5-methylpyrimidin-4-yl)amino)phenyl)-2-methylpropane-2-sulfonamide], on ACK1, the IC50 was 19 nM.
For the compound `COc1cc(N2CCN(C(C)=O)CC2)ccc1Nc1ncc(C)c(Nc2cccc(NS(=O)(=O)C(C)(C)C)c2)n1` [N-(3-((2-((4-(4-acetylpiperazin-1-yl)-2-methoxyphenyl)amino)-5-methylpyrimidin-4-yl)amino)phenyl)-2-methylpropane-2-sulfonamide], it took 21.3 nM to reach half-maximal inhibition against ACK1 (IC50).
Turning to `CC(=O)N1CCN(c2ccc(Nc3ncc(C)c(Nc4cccc(NS(=O)(=O)C(C)(C)C)c4)n3)cc2OC(C)C)CC1` [N-(3-((2-((4-(4-acetylpiperazin-1-yl)-3-isopropoxyphenyl)amino)-5-methylpyrimidin-4-yl)amino)phenyl)-2-methylpropane-2-sulfonamide], the IC50 at ACK1 was 13 nM.
On the same count and under the same terms, with `CC(=O)N1CCN(c2ccc(Nc3ncc(C)c(Nc4cccc(NS(=O)(=O)C(C)(C)C)c4)n3)cc2)CC1` [N-(3-((2-((4-(4-acetylpiperazin-1-yl)phenyl)amino)-5-methylpyrimidin-4-yl)amino)phenyl)-2-methylpropane-2-sulfonamide] the figure was 15.3 nM.
Still for that read-out and setting: under `COc1cc(N2CCN(C)CC2)c(F)cc1Nc1ncc(C)c(Nc2cccc(NS(=O)(=O)C(C)(C)C)c2)n1` [N-(3-((2-((5-fluoro-2-methoxy-4-(4-methylpiperazin-1-yl)phenyl)amino)-5-methylpyrimidin-4-yl)amino)phenyl)-2-methylpropane-2-sulfonamide] stands 16.9 nM.
Consider `CN1CCN(c2ccc(Nc3ncc(Cl)c(Nc4cccc(NS(=O)(=O)C(C)(C)C)c4)n3)c(OC3CCC3)c2)CC1` [N-(3-((5-chloro-2-((2-cyclobutoxy-4-(4-methylpiperazin-1-yl)phenyl)amino)pyrimidin-4-yl)amino)phenyl)-2-methylpropane-2-sulfonamide], for which the IC50 against ACK1 stood at 30 nM.
For `CC(C)Oc1cc(Nc2ncc(Cl)c(Nc3cccc(NS(=O)(=O)C(C)(C)C)c3)n2)ccc1-c1cnn(C)c1` [N-(3-((5-chloro-2-((3-isopropoxy-4-(1-methyl-1H-pyrazol-4-yl)phenyl)amino)pyrimidin-4-yl)amino)phenyl)-2-methylpropane-2-sulfonamide], 64 nM corresponded to half-maximal inhibition at ACK1 (IC50).
Still for that read-out and setting: with `CC(C)Oc1cc(Nc2ncc(Cl)c(Nc3cccc(NS(=O)(=O)C(C)(C)C)c3)n2)ccc1N1CCN(C)CC1` [N-(3-((5-chloro-2-((3-isopropoxy-4-(4-methylpiperazin-1-yl)phenyl)amino)pyrimidin-4-yl)amino)phenyl)-2-methylpropane-2-sulfonamide] the figure was 15 nM.
The same measure, in the same setting: with `COc1cc(N2CCN(C)CC2)ccc1Nc1ncc(C)c(Nc2ccc(NS(=O)(=O)C(C)(C)C)cc2)n1` [N-(4-((2-((2-methoxy-4-(4-methylpiperazin-1-yl)phenyl)amino)-5-methylpyrimidin-4-yl)amino)phenyl)-2-methylpropane-2-sulfonamide] the figure was 7.62 nM; with `Cc1cnc(Nc2ccc(-c3cnn(C)c3)c(OC(C)C)c2)nc1Nc1ccc(NS(=O)(=O)C(C)(C)C)cc1` [N-(4-((2-((3-isopropoxy-4-(1-methyl-1H-pyrazol-4-yl)phenyl)amino)-5-methylpyrimidin-4-yl)amino)phenyl)-2-methylpropane-2-sulfonamide], 16.9 nM.
The compound `Cc1cnc(Nc2ccc(N3CCN(C)CC3)c(OC(C)C)c2)nc1Nc1ccc(NS(=O)(=O)C(C)(C)C)cc1` [N-(4-((2-((3-isopropoxy-4-(4-methylpiperazin-1-yl)phenyl)amino)-5-methylpyrimidin-4-yl)amino)phenyl)-2-methylpropane-2-sulfonamide] gave an IC50 at ACK1 of 18.7 nM.
Still for that read-out and setting: with `COc1cc(Nc2ncc(C)c(Nc3ccc(NS(=O)(=O)C(C)(C)C)cc3)n2)ccc1N1CCN(C)CC1` [N-(4-((2-((3-methoxy-4-(4-methylpiperazin-1-yl)phenyl)amino)-5-methylpyrimidin-4-yl)amino)phenyl)-2-methylpropane-2-sulfonamide] the figure was 15.9 nM.
On the same count and under the same terms, with `COc1cc(N2CCN(C)CC2)c(F)cc1Nc1ncc(C)c(Nc2ccc(NS(=O)(=O)C(C)(C)C)cc2)n1` [N-(4-((2-((5-fluoro-2-methoxy-4-(4-methylpiperazin-1-yl)phenyl)amino)-5-methylpyrimidin-4-yl)amino)phenyl)-2-methylpropane-2-sulfonamide] the figure was 30.8 nM.
Same read-out and setting: under `COc1cc(N2CCN(C)CC2)c(F)cc1Nc1ncc(C)c(Nc2ccc(NS(C)(=O)=O)cc2)n1` [N-(4-((2-((5-fluoro-2-methoxy-4-(4-methylpiperazin-1-yl)phenyl)amino)-5-methylpyrimidin-4-yl)amino)phenyl)methanesulfonamide] stands 14.8 nM.
At ACK1, `COc1cc(N2CCN(C)CC2)ccc1Nc1ncc(Cl)c(Nc2ccc(NS(=O)(=O)C(C)(C)C)cc2)n1` [N-(4-((5-chloro-2-((2-methoxy-4-(4-methylpiperazin-1-yl)phenyl)amino)pyrimidin-4-yl)amino)phenyl)-2-methylpropane-2-sulfonamide] showed an IC50 of 17.5 nM.
In turn, `CC(C)Oc1cc(Nc2ncc(Cl)c(Nc3ccc(NS(=O)(=O)C(C)(C)C)cc3)n2)ccc1-c1cnn(C)c1` [N-(4-((5-chloro-2-((3-isopropoxy-4-(1-methyl-1H-pyrazol-4-yl)phenyl)amino)pyrimidin-4-yl)amino)phenyl)-2-methylpropane-2-sulfonamide] showed a half-maximal inhibitory concentration (IC50) against ACK1 of 75.9 nM.
Same read-out and setting: under `CC(C)Oc1cc(Nc2ncc(Cl)c(Nc3ccc(NS(=O)(=O)C(C)(C)C)cc3)n2)ccc1N1CCN(C)CC1` [N-(4-((5-chloro-2-((3-isopropoxy-4-(4-methylpiperazin-1-yl)phenyl)amino)pyrimidin-4-yl)amino)phenyl)-2-methylpropane-2-sulfonamide] stands 15.5 nM.
The same measure, in the same setting: under `CC(C)Oc1cc(Nc2ncc(Cl)c(Nc3ccc(NS(C)(=O)=O)cc3)n2)ccc1N1CCN(C)CC1` [N-(4-((5-chloro-2-((3-isopropoxy-4-(4-methylpiperazin-1-yl)phenyl)amino)pyrimidin-4-yl)amino)phenyl)methanesulfonamide] stands 26.7 nM; under `COc1cc(Nc2ncc(Cl)c(Nc3ccc(NS(=O)(=O)C(C)(C)C)cc3)n2)ccc1N1CCN(C)CC1` [N-(4-((5-chloro-2-((3-methoxy-4-(4-methylpiperazin-1-yl)phenyl)amino)pyrimidin-4-yl)amino)phenyl)-2-methylpropane-2-sulfonamide], 17.5 nM.
